“Also recorded” adds a separate entry of the source. Read-outs that look alike come from different tables or passages of the source.

For orientation: IC50 means the concentration that gives 50% inhibition. For orientation: Kd means the constant that tells how readily two partners part at equilibrium. What is called EC50 is the midpoint of the concentration-response curve.

The subject of assay [1] is TEAD. Kind of assay: TEAD luciferase reporter assay in MCF7 cells. In kind it is cell-based. To be noted: for IC50: Homo sapiens. As for the experimental part: (§1) Stable cell lines, namely MCF7 cell TEAD luciferase cells, were maintained in Dulbecco’s modified Eagle medium (DMEM) containing 10% fetal bovine serum, penicillin, and streptomycin, at 37 °C, in a humidified incubator containing 5% CO2. To construct an MCF7-TEAD luciferase stable cell line, MCF7 cells were infected with a TEAD luciferase reporter lentivirus using polybrene (Millipore, Burlington, MA, USA) and then selected with puromycin. The stable cell lines NCI-[…] and NCI-H28 were maintained in Roswell Park Memorial Institute (RPMI) medium.
TEAD luciferase reporter MCF7 cells were seeded into 96-well white plates (3 × 10^4 cells per well). The medium was replaced with DMEM without fetal bovine serum (FBS; 100 μL per well), and the cells were treated with various concentrations of compounds (0.001–10 μmol/L) for 24 h. Fifty microliters of the medium containing compounds was removed from each well, following which 50 μL of FBS in 10% DMEM was added to the cells and incubated for 6 h. Luciferase activity was measured using the One-Glo® Luciferase Assay Kit from Promega (Madison, WI, USA). A small portion of the medium was removed (60 μL) from each well, and 40 μL of One-Glo® Luciferase assay buffer containing reagent was added in its place. Luminescence was measured using a VICTOR® Nivo™ multimode microplate reader (PerkinElmer, Waltham, MA, USA) and normalized to the results of the vehicle.

The subject of a further assay is H226 cancer cell. Kind of assay: Cell viability assay (CellTiter-Glo 2.0), H226. The following applies: Homo sapiens, NCI-H226, 144 h, H226 cells, n = 3. In kind it is cell-based. As to the method: as §1
(§2) Cells were seeded into 96-well plates (1 × 10^3 cells per well) and changed to RPMI with 1% FBS, and then treated with various concentrations (0.0001–10 μmol/L) of compounds (MGH-CP1, BC-010, BC-011, and BC-013) for 144 h. The medium was replaced with 1% FBS + RPMI containing compounds every 3 d. Cell viability was measured using the CellTiter-Glo® 2.0 Cell Viability Assay Kit from Promega. Before the viability was measured, the drug treatment medium was removed and replaced with 50 μL of FBS-free RPMI and 50 μL of CellTiter-Glo® 2.0 reagent. The cells with medium replacement were incubated for 1 h at room temperature, to prevent exposure to light. Luminescence was measured using a VICTOR® Nivo™ multimode microplate reader (PerkinElmer) and normalized to the results of the vehicle.
On the technique in general: ATP-based viability assays read luminescence as a measure of living cells.

The subject of the next assay is H28 cancer cell line. As to the kind of experiment: Cell viability assay (CellTiter-Glo 2.0), H28. In kind it is cell-based. To be noted: for IC50: Homo sapiens, NCI-H28, H28 cells, 144 h, n = 3. As for the experimental part: as §1, §2
Assay [2] has as its system TEAD target genes Ctgf and Cyr61. Kind of assay: mRNA expression of TEAD target genes by qRT-PCR in H226 cells. In kind it is cell-based. To be noted: 24 h, 1, 5 and 10 μM, n = 3. As for the experimental part: H226 cells were seeded at a density of 1 × 10^5 cells/well into a 12-well plate. After treatment with various concentrations (1, 5, and 10 μM) of the compounds, the cells were incubated at 37 °C for 24 h. RNA extraction was performed using the RNeasy Plus Mini Kit (QIAGEN, Hilden, Germany), as per the manufacturer’s protocol. Extracted RNA was quantified using a NanoDrop™ One Microvolume UV–Vis Spectrophotometer (Thermo Fisher, Waltham, MA, USA). cDNA was synthesized using 1000 ng of quantified RNA and an iScript™ cDNA Synthesis Kit (Bio-Rad, Hercules, CA, USA). qRT-PCR was carried out using PowerUp™ SYBR™ Green Master Mix (Thermo Fisher) and primers (hCTGF-F: CCAATGACAACGCCTCCTG, hCTGF-R: TGGTGCAGCCAGAAAGCTC, hCYR61-F: […], hCYR61-R: […], hβ-actin-F: […], hβ-actin-R: […]), with the results normalized to those of the vehicle.

Another assay has as its target TEAD2. Details: method as in PMID 26592798. To be noted: reference compounds of Figure 1; cited from earlier work.
Assay [3] concerns TEAD. The following applies: cited from earlier work.
The subject of assay [4] is TEAD. The following applies: cited from earlier work. This is another data set of the same source.
The mark [5] stands for this setting: 1 nM to 10 μM, n = 2, read-out: IC50, TEAD reporter luciferase assay.
The mark [6] stands for this setting: reference compounds of Figure 1.
The mark [7] stands for this setting: reference compounds of Figure 1 and FMO section.
Where [8] appears, read: Vivace compounds, ref 45 (WO202097389A1).

As for `COc1ccc(C(=O)NN)cc1COc1ccc(Cl)c(C)c1` [BC-001], the 50% inhibitory concentration (IC50) in the assay on TEAD [1] (setting [5]) is 3680 nM; in the assay on TEAD [1] (read-out: IC50, reporter assay), 3700 nM.
Turning to `COc1ccc(C(=O)NN)cc1COc1ccc(Br)cc1` [BC-002], the “TEAD reporter luciferase activity (in words)” value with TEAD [1] is “retained the same activity as BC-001”. The IC50 with TEAD [1] (setting [5]) is 2890 nM.
For the molecule `COc1ccc(C(=O)NN)cc1COc1ccc(Cl)cc1` [BC-003], the “TEAD reporter luciferase activity (in words)” value with TEAD [1] was “retained the same activity as BC-001”. Also, the IC50 with TEAD [1] (setting [5]) came out at 3990 nM.
Consider `COc1ccc(C=C(C#N)C#N)cc1COc1cc(C)c(Cl)c(C)c1` [BC-004], for which, in the assay with TEAD [1], the “TEAD reporter luciferase activity (in words)” value is listed as “did not exhibit any activity”. For the same molecule, the IC50 in the assay with TEAD [1] (1 nM to 10 μM, n = 2, printed in figure as 10uM<, read-out: IC50, TEAD reporter luciferase assay) is > 10000 nM.
`NNC(=O)c1cccc(COc2ccc(Cl)cc2)c1` [BC-005]: the “TEAD reporter luciferase activity (in words)” value in the assay with TEAD [1] was “increased”.
Turning to `COc1ccc(C(=O)NN)cc1COc1ccccc1` [BC-006], the IC50 in the assay with TEAD [1] (setting [5]) amounted to 1520 nM.
Still for that read-out and setting: the same measure for `COc1ccc(C(N)=O)cc1COc1ccccc1` [BC-007]: 5610 nM; for `COc1ccc(C(=O)O)cc1COc1ccccc1` [BC-008]: > 10000 nM; for `COC(=O)c1ccc(OC)c(COc2ccccc2)c1` [BC-009]: 2610 nM.
As to `COc1ccc(C(=O)NN)cc1COc1ccc(C(F)(F)F)cc1` [BC-010], the values for the IC50 in the assay on H226 cancer cell, in the assay on H28 cancer cell line and with TEAD [1] (setting [5]) were 930 nM, 9100 nM and 768 nM, respectively.
For `COc1ccc(C(N)=O)cc1COc1ccc(C(F)(F)F)cc1` [BC-011], the results for the IC50 with H226 cancer cell, in the assay with H28 cancer cell line and with TEAD [1] (setting [5]) were 488 nM, > 10000 nM and 72.4 nM, respectively. In assay [2], the “Ctgf mRNA expression” value was “significantly downregulated; also recorded: decreased”. The “Cyr61 mRNA expression” value in assay [2] is “significantly downregulated; also recorded: decreased”. The “Effect on viability (in words)” value with H28 cancer cell line (H28 cancer cell line) is given as “did not show any inhibitory effects”.
For `COc1ccc(C(=O)O)cc1COc1ccc(C(F)(F)F)cc1` [BC-012], in the assay with TEAD [1] (setting [5]), the IC50 amounted to 8900 nM.
`COC(=O)c1ccc(OC)c(COc2ccc(C(F)(F)F)cc2)c1` [BC-013]: the values for the IC50 in the assay with H226 cancer cell, in the assay with H28 cancer cell line and in the assay with TEAD [1] (setting [5]) were 2250 nM, 9320 nM and 417 nM, respectively.
Consider `O=C(O)c1ccccc1Nc1cccc(Br)c1` [Bromofenamic acid, bromofenamic acid], for which the Kd on TEAD2 is 234000 nM.
Regarding `COc1c(C)cc(N2C[C@@H](O)[C@@H](O)C2=O)cc1/C=C/c1ccc(Cl)cc1` [Compound 1 (Genentech)], the IC50 in the assay on TEAD [3] (setting [6]) was 2800 nM.
Turning to `COc1ncc(NS(C)(=O)=O)cc1/C=C/C1CCC(F)(F)CC1` [Compound 2], the IC50 in the assay with TEAD [3] (setting [7]) is 263 nM.
As to `C[C@@H](CN(C)C)NC(=O)c1ccc2c(-c3ccc(C(F)(F)F)cc3)cccc2c1` [EX64], the IC50 in the assay on TEAD [4] (setting [8]) is 1000 to 3000 nM.
In the case of `O=C(O)c1ccccc1Nc1cccc(C(F)(F)F)c1` [Flufenamic acid, flufenamic acid], the Kd on TEAD2 was 73000 nM.
For `O=C(O)c1cnc2c(cnn2C2CCCC2)c1` [Fragment 1(Merck)], the IC50 in the assay with TEAD [3] (setting [6]) is 16000 nM.
For `C=CC(=O)Nc1ccc(C)c(Oc2ccc(Cl)cc2)c1` [K–975], in the assay on TEAD [3] (setting [7]), the IC50 was < 100 nM.
Consider `O=C(CSc1nnc[nH]1)Nc1ccc(C23CC4CC(CC(C4)C2)C3)cc1` [MGH-CP1, reference compound], for which the IC50 was 1190 nM in the assay with H226 cancer cell, 1920 nM with TEAD [3] (setting [7]), 1720 nM in the assay with H28 cancer cell line and 219 nM in the assay on TEAD [1] (setting [5]).
On to `Cn1cc2c3cc(C(=O)O)ccc3n(-c3ccc(C(F)(F)F)cc3)c2n1` [MSC-4106], for which the IC50 in the assay with TEAD [3] (setting [7]) is 4 nM.
For `C=CC(=O)N1C[C@@H](n2cc(-c3cccnc3)nn2)[C@H](OCc2ccc(C(F)(F)F)cc2)C1` [MYF–03–69], the half-maximal inhibitory concentration (IC50) in the assay with TEAD [3] (setting [7]) was 385 nM.
Regarding `Cn1cc2c3cc(C(=O)O)ccc3n(-c3ccc(F)cc3)c2n1` [Merck_20], the IC50 with TEAD [4] (Merck compounds, ref 40 (WO2021224291A1)) is 1900 nM.
With `O=C(CCl)c1ccccc1Nc1cccc(C(F)(F)F)c1` [TED–347], in the assay with TEAD [3] (reference compound of Figure 1), the EC50 was 5900 ± 400 nM.
Take `O=C(Nc1ccccc1)N1CCN(C(=O)c2cccc(OCCC3CCCCC3)c2)CC1` [TM2]: the IC50 in the assay on TEAD [3] (setting [6]) was 152 nM.
As for `C[C@H](NC(=O)c1ccc2c(-c3ccc(C(F)(F)F)cc3)cccc2c1)c1ccccn1` [VT-104], the IC50 with TEAD [4] (setting [8]) is 10 nM.
As to `CC(NC(=O)c1cnc2c(-c3ccc(C(F)(F)F)cc3)cccc2c1)c1ccccn1` (centres unmarked) [VT-105], the IC50 in the assay on TEAD [3] (setting [7]) is 10.4 nM.

The record behind these values is paper PMC11121470, “Leveraging the Fragment Molecular Orbital and MM-GBSA Methods in Virtual Screening for the Discovery of Novel Non-Covalent Inhibitors Targeting the TEAD Lipid Binding Pocket” (International Journal of Molecular Sciences, 2024).
